# Assay results: ChEMBL document CHEMBL3885881, “DrugMatrix”
# Several values for one entry are separate records, joined by “and”; a condition that tells them apart may be missing. Identical values can stand only once.
# Species: Rattus norvegicus
# Assay: DrugMatrix - Regimen: Daily Repeat
# Type: toxicity, organism-based, Sprague-Dawley
# Design: regimen Daily Repeat, gender Male, age 6-8 weeks
# Conditions: in vivo, po, 0 mg/kg, route oral GAVAGE, dose level Control, vehicle 100 % SALINE; for ABSOLUTE BASOPHIL / ABSOLUTE LYMPHOCYTE / ABSOLUTE SEGMENTED NEUTROPHIL / BASOPHIL / EOSINOPHIL / ERYTHROCYTE COUNT / HEMATOCRIT / HEMOGLOBIN / LEUKOCYTE COUNT / LYMPHOCYTE / MEAN CORPUSCULAR HEMOGLOBIN / MEAN CORPUSCULAR HEMOGLOBIN CONCENTRATION / MONOCYTE / NEUTROPHIL / NUCLEATED RED BLOOD CELLS / PLATELET COUNT / ABSOLUTE EOSINOPHIL / ABSOLUTE MONOCYTE: tissue Blood
# [1] = 72 h, tissue Plasma, time 3 day
# [2] = 120 h, tissue Plasma, time 5 day
smiles,measurement,setting,value
CN(C)C=O [DIMETHYLFORMAMIDE],ABSOLUTE BASOPHIL,"72 h, time 3 day",0 CELLS/uL
same,ABSOLUTE LYMPHOCYTE,"72 h, time 3 day",8960.83 CELLS/uL and 11922.83 CELLS/uL
same,ABSOLUTE SEGMENTED NEUTROPHIL,"72 h, time 3 day",635.67 CELLS/uL and 1526.33 CELLS/uL
same,BASOPHIL,"72 h, time 3 day",0%
same,EOSINOPHIL,"72 h, time 3 day",0% and 0.5%
same,ERYTHROCYTE COUNT,"72 h, time 3 day",5.09 x10E6/uL and 5.62 x10E6/uL
same,HEMATOCRIT,"72 h, time 3 day",31.8% and 37.17%
same,HEMOGLOBIN,"72 h, time 3 day",12.42 G/DL and 13.53 G/DL
same,LEUKOCYTE COUNT,"72 h, time 3 day",9.7 x10E3/uL and 13.92 x10E3/uL
same,LYMPHOCYTE,"72 h, time 3 day",92.33% and 86.17%
same,MEAN CORPUSCULAR HEMOGLOBIN,"72 h, time 3 day",24.4 pg and 24.07 pg
same,MEAN CORPUSCULAR HEMOGLOBIN CONCENTRATION,"72 h, time 3 day",39.07 G/DL and 36.42 G/DL
same,MONOCYTE,"72 h, time 3 day",1% and 3%
same,NEUTROPHIL,"72 h, time 3 day",6.67% and 10.33%
same,NUCLEATED RED BLOOD CELLS,"72 h, time 3 day",0 /100WBC
same,PLATELET COUNT,"72 h, time 3 day",466.5 x10E3/uL and 1107 x10E3/uL
same,ALANINE AMINOTRANSFERASE,[1],83.33 u/L and 45.33 u/L
same,ALBUMIN,[1],4.33 G/DL and 4.3 G/DL
same,ALKALINE PHOSPHATASE,[1],340.5 u/L and 321.33 u/L
same,ASPARTATE AMINOTRANSFERASE,[1],189.83 u/L and 77.33 u/L
same,BLOOD UREA NITROGEN,[1],15.83 mg/dL and 14.33 mg/dL
same,CARBON DIOXIDE,[1],38 mmol/L and 32.33 mmol/L
same,CHLORIDE,[1],96.83 MEQ/L and 99.67 MEQ/L
same,CHOLESTEROL,[1],72.5 mg/dL and 82.33 mg/dL
same,CREATINE PHOSPHOKINASE,[1],370.67 u/L and 205.5 u/L
same,CREATININE,[1],0.28 mg/dL and 0.19 mg/dL
same,GLUCOSE,[1],182.83 mg/dL and 150.83 mg/dL
same,LIPASE,[1],9.83 u/L and 10.83 u/L
same,PHOSPHORUS,[1],11.32 mg/dL and 10.9 mg/dL
same,SODIUM,[1],145.12 MEQ/L and 145.15 MEQ/L
same,TOTAL BILIRUBIN,[1],0.2 mg/dL and 0.12 mg/dL
same,TOTAL PROTEIN,[1],6.4 G/DL and 6.22 G/DL
same,ABSOLUTE BASOPHIL,"120 h, time 5 day",0 CELLS/uL
same,ABSOLUTE EOSINOPHIL,"120 h, time 5 day",43.83 CELLS/uL
same,ABSOLUTE LYMPHOCYTE,"120 h, time 5 day",7316.67 CELLS/uL
same,ABSOLUTE MONOCYTE,"120 h, time 5 day",87.33 CELLS/uL
same,ABSOLUTE SEGMENTED NEUTROPHIL,"120 h, time 5 day",418.83 CELLS/uL
same,BASOPHIL,"120 h, time 5 day",0%
same,EOSINOPHIL,"120 h, time 5 day",0.33%
same,ERYTHROCYTE COUNT,"120 h, time 5 day",4.77 x10E6/uL
same,HEMATOCRIT,"120 h, time 5 day",29.93%
same,HEMOGLOBIN,"120 h, time 5 day",11.48 G/DL
same,LEUKOCYTE COUNT,"120 h, time 5 day",7.87 x10E3/uL
same,LYMPHOCYTE,"120 h, time 5 day",93.5%
same,MEAN CORPUSCULAR HEMOGLOBIN,"120 h, time 5 day",24.17 pg
same,MEAN CORPUSCULAR HEMOGLOBIN CONCENTRATION,"120 h, time 5 day",38.57 G/DL
same,MONOCYTE,"120 h, time 5 day",1%
same,NEUTROPHIL,"120 h, time 5 day",5.17%
same,NUCLEATED RED BLOOD CELLS,"120 h, time 5 day",0 /100WBC
same,PLATELET COUNT,"120 h, time 5 day",377.67 x10E3/uL
same,ALANINE AMINOTRANSFERASE,[2],89 u/L
same,ALBUMIN,[2],4.42 G/DL
same,ALKALINE PHOSPHATASE,[2],275.17 u/L
same,ASPARTATE AMINOTRANSFERASE,[2],204.17 u/L
same,BLOOD UREA NITROGEN,[2],15.33 mg/dL
same,CARBON DIOXIDE,[2],36.83 mmol/L
same,CHLORIDE,[2],94.67 MEQ/L
same,CHOLESTEROL,[2],92 mg/dL
same,CREATINE PHOSPHOKINASE,[2],514.5 u/L
same,CREATININE,[2],0.24 mg/dL
same,GLUCOSE,[2],184.17 mg/dL
same,LACTATE DEHYDROGENASE,[2],648.67 u/L
same,LIPASE,[2],10 u/L
same,PHOSPHORUS,[2],12.33 mg/dL
same,SODIUM,[2],144.63 MEQ/L
same,TOTAL BILIRUBIN,[2],0.18 mg/dL
same,TOTAL PROTEIN,[2],6.7 G/DL
same,ABSOLUTE BASOPHIL,"[…], time 7 day",0 CELLS/uL
same,ABSOLUTE EOSINOPHIL,"[…], time 7 day",22 CELLS/uL
same,ABSOLUTE LYMPHOCYTE,"[…], time 7 day",11105.17 CELLS/uL
same,ABSOLUTE MONOCYTE,"[…], time 7 day",258.17 CELLS/uL
same,ABSOLUTE SEGMENTED NEUTROPHIL,"[…], time 7 day",881.33 CELLS/uL
same,BASOPHIL,"[…], time 7 day",0%
same,EOSINOPHIL,"[…], time 7 day",0.17%
same,ERYTHROCYTE COUNT,"[…], time 7 day",5.29 x10E6/uL
same,HEMATOCRIT,"[…], time 7 day",34.03%
same,HEMOGLOBIN,"[…], time 7 day",13.67 G/DL
same,LEUKOCYTE COUNT,"[…], time 7 day",12.27 x10E3/uL
same,LYMPHOCYTE,"[…], time 7 day",90.83%
same,MEAN CORPUSCULAR HEMOGLOBIN,"[…], time 7 day",25.9 pg
same,MEAN CORPUSCULAR HEMOGLOBIN CONCENTRATION,"[…], time 7 day",40.18 G/DL
same,MONOCYTE,"[…], time 7 day",2.17%
same,NEUTROPHIL,"[…], time 7 day",6.83%
same,NUCLEATED RED BLOOD CELLS,"[…], time 7 day",0 /100WBC
same,PLATELET COUNT,"[…], time 7 day",1159.83 x10E3/uL
same,ALANINE AMINOTRANSFERASE,"[…], tissue Plasma, time 7 day",45.83 u/L
same,ALBUMIN,"[…], tissue Plasma, time 7 day",4.1 G/DL
same,ALKALINE PHOSPHATASE,"[…], tissue Plasma, time 7 day",240 u/L
same,ASPARTATE AMINOTRANSFERASE,"[…], tissue Plasma, time 7 day",88.67 u/L
same,BLOOD UREA NITROGEN,"[…], tissue Plasma, time 7 day",13.67 mg/dL
same,CARBON DIOXIDE,"[…], tissue Plasma, time 7 day",31.83 mmol/L
same,CHLORIDE,"[…], tissue Plasma, time 7 day",96.83 MEQ/L
same,CHOLESTEROL,"[…], tissue Plasma, time 7 day",71.17 mg/dL
same,CREATINE PHOSPHOKINASE,"[…], tissue Plasma, time 7 day",202.5 u/L
same,CREATININE,"[…], tissue Plasma, time 7 day",0.22 mg/dL
